Laboratory results taken from US20220387303A1, “Vaginal Drug Delivery Device” (THE REGENTS OF THE UNIVERSITY OF CALIFORNIA, priority 2019, published 2022).
Converted amounts (≈) assume the structure as drawn.

How the values were obtained:
[1] = In vitro cumulative drug release from devices in PBS (pH 7.4) at 37° C. under gentle shaking; format: physicochemical
[2] = system: Candida albicans (ATCC 18804); experiment: Liquid assay, inhibition of yeast growth in Sabouraud dextrose broth; format: cell-based; conditions: for Optical Density (OD600): 12 h; for Cell Density: converted from OD600
Procedure: Liquid assay was also used to further characterize the […] properties. Candida albicans (ATCC 18804) was cultured in Sabouraud dextrose broth with a starting concentration of 0.08 OD600 value. After 12 h, optical density was measured using spectrometer at 600 nm wavelength. Then, conversion to cell density is using the approximation 0.5 equals 1.5×10^8 CFU/ml.

| sustained release duration ([1]; clotrimazole from PLGA device) | IC50 ([2]; Candida albicans, ATCC18804, after 12 h, starting 0.08 OD600, read-out: IC50 (half maximal inhibitory concentration)) | prolonged and sustained release of hormone drugs, duration ([1]; released from device) | Compound | Optical Density (OD600) ([2]; Clotrimazole Conc. 0.37 μg/ml) | Cell Density ([2]; Clotrimazole Conc. 0.37 μg/ml) | Optical Density (OD600) ([2]; Clotrimazole Conc. 1.1 μg/ml) | Cell Density ([2]; Clotrimazole Conc. 1.1 μg/ml) | Optical Density (OD600) ([2]; Clotrimazole Conc. 3.3 μg/ml) | Cell Density ([2]; Clotrimazole Conc. 3.3 μg/ml) | Optical Density (OD600) ([2]; Clotrimazole Conc. 10 μg/ml) | Cell Density ([2]; Clotrimazole Conc. 10 μg/ml) |
| --- | --- | --- | --- | --- | --- | --- | --- | --- | --- | --- | --- |
| up to 10 days | 3.3 µg/mL (≈ 9.57 µM) |  | Clc1ccccc1C(c1ccccc1)(c1ccccc1)n1ccnc1 [Clotrimazole] | 0.9 | 2.7e+08 mL⁻¹ | 0.8 | 2.4e+08 mL⁻¹ | 0.7 | 2.1e+08 mL⁻¹ | 0.5 | 1.5e+08 mL⁻¹ |
|  |  | more than two months | CC(=O)[C@H]1CC[C@H]2[C@@H]3CCC4=CC(=O)CC[C@]4(C)[C@H]3CC[C@]12C [progesterone] |  |  |  |  |  |  |  |  |
